From ChEMBL document CHEMBL4346733, “Evaluation of amidoxime derivatives as prodrug candidates of potent bis-cationic antimalarials” (Bioorg Med Chem Lett, 2019)
Active and inactive are the calls of the source. The calls are words filed in the database; no cut-off is given here.

Assays:
Plasmodium falciparum [1] = assay: Antimalarial activity against chloroquine-sensitive Plasmodium falciparum Nigerian infected in human blood after 48 hrs by [3H]-hypoxanthine incorporation assay; type: functional, organism-based
[2] = test system: Plasmodium vinckei petteri; assay: (§1) Antimalarial activity against Plasmodium vinckei petteri 279BY infected in Swiss mouse assessed as reduction in parasitemia administered once daily via oral gavage starting from day 1 to day 4 post infection measured on day 5 Giemsa staining based flow cytometric analysis; type: functional
[3] = test system: Plasmodium vinckei petteri; assay: Antimalarial activity against Plasmodium vinckei petteri 279BY infected in Swiss mouse assessed as reduction in parasitemia administered once daily via intraperitoneal route starting from day 1 to day 4 post infection measured on day 5 Giemsa staining based flow cytometric analysis; type: functional; settings: ip
[4] = Drug metabolism in human liver microsomes assessed as disappearance of parent compound at 0.5 mM after 2 hrs by HPLC-UV analysis; type: ADME, Microsome; settings: read-out: Drug metabolism
[5] = Retention time of compound at 0.05 mg/ml by HPLC analysis; type: physicochemical
[6] = Retention time of compound in human liver microsomes at 0.5 mM after 2 hrs HPLC-UV analysis; type: ADME, Microsome; settings: 500 µM
[7] = Stability of compound in human plasma at 1000 ug/ml up to 120 mins by HPLC-UV analysis; type: ADME, cell-free; settings: 2 h
[8] = Drug metabolism in human liver microsomes assessed as 1-(4-Amidinophenoxy)-8-amidinooctane dihydrochloride formation by measuring retention time of metabolite at 0.5 mM after 2 hrs by HPLC-UV analysis; type: ADME, Microsome; settings: 500 µM
[9] = Stability of compound in human blood at 1000 ug/ml up to 120 mins by HPLC-UV analysis; type: ADME, tissue-based; settings: 2 h
[10] = Drug metabolism in human liver microsomes assessed as monoamidine-1 formation by measuring retention time of metabolite at 0.5 mM after 2 hrs by HPLC-UV analysis; type: ADME, Microsome; settings: 500 µM
Plasmodium falciparum [11] = assay: Antimalarial activity against chloroquine-sensitive Plasmodium falciparum Nigerian after 48 hrs by [3H]-hypoxanthine incorporation assay; type: functional, organism-based
[12] = test system: Plasmodium vinckei petteri; assay: as §1, with “at dosed intraperitoneally” for “administered”, “for 4 consecutive days” for “via oral gavage”, “infection and” for “infection”, “28 by” for “5”; type: functional; parameters: scale not given: the % may be the effect or the level left
[13] = test system: Plasmodium vinckei petteri; assay: Selectivity index, ratio of ED50 for antimalarial activity against Plasmodium vinckei petteri 279BY infected in Swiss mouse administered via intraperitoneal route to ED50 for antimalarial activity against Plasmodium vinckei petteri 279BY infected in Swiss mouse administered via oral route; type: functional
[14] = test system: Plasmodium vinckei petteri; assay: Antimalarial activity against Plasmodium vinckei petteri 279BY infected in Swiss mouse assessed as reduction in parasitemia at 20 mg/kg, ip once daily for 4 consecutive days starting from day 1 to day 4 post infection and measured on day 5 Giemsa staining based flow cytometric analysis; type: functional, organism-based
[15] = Drug metabolism in human liver microsomes assessed as 1-(4-N-pyrrolidinylamidinophenoxy)-8-N-pyrrolidinylamidinooctane dihydrochloride formation by measuring retention time of metabolite at 0.5 mM after 2 hrs by LC-MS analysis; type: ADME, Microsome; settings: 500 µM
[16] = Drug metabolism in human liver microsomes assessed as 1-(4-N-isopropylamidinophenoxy)-8-N-isopropylamidinooctane dihydrochloride formation by measuring disappearance of parent compound at 0.5 mM after 2 hrs by HPLC-UV analysis; type: ADME, Microsome; settings: 500 µM
[17] = Drug metabolism in human liver microsomes assessed as 1-(4-N-isopropylamidinophenoxy)-8-N-isopropylamidinooctane dihydrochloride formation by measuring retention time of metabolite at 0.5 mM after 2 hrs by HPLC-UV analysis; type: ADME, Microsome; settings: 500 µM

Structure (SMILES)	IC50 (Plasmodium falciparum [1]) [nM]	ED50 [2] [mg/kg]	ED50 [3] [mg/kg]	Retention_time [5] [min]	other results
COc1ccc(/C(=N/O)NCCCCCCCCCCCCN/C(=N\O)c2ccc(OC)cc2)cc1	24000	> 90	> 20	–	–
Cc1c(CCO)sc[n+]1CCCCCCCCCCCOc1ccc(/C(N)=N/O)cc1.[Br-]	315	> 90	> 20	–	–
Br.Br.N/C(=N\O)c1ccc(OCCCCCCCC/C(N)=N\O)cc1	2000	> 180	> 10	11.5	metabolised at 2 h, 500 µM [4]: 7%; Retention_time [6]: 15.6 min; Stability [7]: Stable; Retention_time [8]: 17.3 min; Stability [9]: Stable; Retention_time [10]: 16.5 min
Cc1c(CCO)sc[n+]1CCCCCCCCCCCCC(=N)N	–	–	–	–	IC50 (Plasmodium falciparum [11]): 2.2 nM
N/C(=N\O)c1ccc(OCCCCCOc2ccc(/C(N)=N/O)cc2)cc1 [PENTAMIDINE DAO]	–	–	–	22.3	metabolised at 2 h, 500 µM [4]: 3%; Retention_time [6]: 29 min; Stability [7]: Stable; Stability [9]: Stable
Cc1c(CCO)sc[n+]1CCCCCCCCOc1ccc(/C(N)=N/O)cc1.[Br-]	360	85	> 20	–	Activity [12]: 100%; Ratio ED50 [13]: >0.23; Activity [14]: inactive
Br.Br.O/N=C(/c1ccc(OCCCCCCCC/C(=N\O)N2CCCC2)cc1)N1CCCC1	–	> 100	10	12.6	metabolised at 2 h, 500 µM [4]: 14%; Retention_time [6]: 12.3 min; Stability [7]: Stable; Stability [9]: Stable; Retention_time [15]: 11.8 min
Cl.Cl.N=C(N)CCCCCCCCOc1ccc(C(=N)N)cc1	51.5	> 90	9	12.9	–
CO/N=C(\NCCCCCCCCCCCCN/C(=N\OC)c1cccc(OC)c1)c1cccc(OC)c1	–	> 90	> 20	–	–
COc1ccc(/C(=N/O)NCCCCCCCCCCCCN/C(=N\O)c2ccc(OC)c(OC)c2)cc1OC	–	> 90	9.1	–	–
COc1cccc(/C(=N/O)NCCCCCCCCCCCCN/C(=N\O)c2cccc(OC)c2)c1	–	> 90	> 20	–	–
Br.Br.CC(C)N/C(=N\O)c1ccc(OCCCCCCCC/C(=N\O)NC(C)C)cc1	–	> 180	> 20	13.1	Drug metabolism [16]: 90%; metabolised at 2 h, 500 µM [4]: 6%; Retention_time [6]: 13.3 min; Retention_time [17]: 10 min; Stability [7]: Stable; Stability [9]: Stable; Retention_time [10]: 12.1 min
COCCc1sc[n+](CCCCCCCCCCCOc2ccc(/C(N)=N/O)cc2)c1C.[Br-]	530	> 90	8.8	–	–
Cl.Cl.N=C(CCCCCCCCOc1ccc(C(=N)N2CCCC2)cc1)N1CCCC1	16	51	1.4	11.8	–
N=C(N)c1ccc(OCCCCCOc2ccc(C(=N)N)cc2)cc1 [PENTAMIDINE]	–	–	–	25.4	metabolised at 2 h, 500 µM [4]: 82%; Retention_time [6]: 25.1 min
CO/N=C(\NCCCCCCCCCCCCN/C(=N\OC)c1ccc(OC)c(OC)c1)c1ccc(OC)c(OC)c1	–	> 90	> 20	–	–
Cc1c(CCO)sc[n+]1CCCCCCCCCCCC/C(N)=N/O.[Br-]	240	> 180	20	–	–
CO/N=C(\NCCCCCCCCCCCCN/C(=N\OC)c1ccccc1)c1ccccc1	–	> 90	> 20	–	–
C[C@H]1[C@H](OC(=O)CCC(=O)O)O[C@@H]2O[C@@]3(C)CC[C@H]4[C@H](C)CC[C@@H]1[C@@]24OO3 [ARTESUNATE]	–	–	1.2	–	–
CC(C)NC(=N)CCCCCCCCOc1ccc(C(=N)NC(C)C)cc1.Cl.Cl	9.5	110	2.8	10.1	–
Cl.Cl.N=C(N)CCCCCCCCCCCOc1ccc(C(=N)N)cc1	195	–	2.2	–	–
O/N=C(\NCCCCCCCCCCCCN/C(=N\O)c1ccccc1)c1ccccc1	–	> 90	> 20	–	–
CCN(CC)CCCC(C)Nc1ccnc2cc(Cl)ccc12 (centres undefined) [CHLOROQUINE]	–	3.4	1.1	–	–
